Test results reported in PMC3794980, “Identification of Conserved and HLA Promiscuous DENV3 T-Cell Epitopes” (PLoS Neglected Tropical Diseases, 2013).

Legend:
Experiment in all cases: biochemical
Assay type in all cases: binding
DRB5*0101 = DRB5*0101 (Homo sapiens, UniProt P01903+Q30154)
DRB4*0101 = DRB4*0101 (Homo sapiens, UniProt P01903+P13762, G164S)
DRB3*0101 = DRB3*0101 (Homo sapiens, UniProt P01903+P79483)

CC[C@H](C)[C@H](NC(=O)[C@@H]1CCCN1C(=O)[C@H](CCC(=O)O)NC(=O)[C@H](CC(C)C)NC(=O)[C@@H](N)CS)C(=O)N[C@@H](CCC(=O)O)C(=O)NCC(=O)N[C@@H](CCCCN)C(=O)N[C@H](C(=O)N[C@H](C(=O)N[C@@H](CCC(N)=O)C(=O)N[C@@H](Cc1ccc(O)cc1)C(=O)N[C@@H](CCC(=O)O)C(=O)N[C@@H](CC(N)=O)C(=O)N[C@@H](CC(C)C)C(=O)O)C(C)C)C(C)C [Envelope 121-135]
IC50 (DRB5*0101): 13300 nM
IC50 (DRB4*0101): 1100 nM

CC[C@H](C)[C@H](NC(=O)[C@H](CC(C)C)NC(=O)[C@H](CO)NC(=O)[C@H](C)NC(=O)[C@H](CCCCN)NC(=O)[C@H](CCC(=O)O)NC(=O)[C@H](CC(C)C)NC(=O)[C@H](CCCCN)NC(=O)[C@H](Cc1c[nH]c2ccccc12)NC(=O)[C@@H](N)CO)C(=O)N[C@@H](CCC(=O)O)C(=O)N[C@H](C(=O)N[C@@H](CCCCN)C(=O)N[C@H](C(=O)N[C@@H](CS)C(=O)O)[C@@H](C)O)C(C)C [NS1 209-223]
IC50 (DRB5*0101): 1180 nM
IC50 (DRB4*0101): 5020 nM

CC[C@H](C)[C@H](NC(=O)[C@@H](NC(=O)[C@H](CCSC)NC(=O)[C@H](CC(=O)O)NC(=O)[C@H](CO)NC(=O)[C@H](CCC(=O)O)NC(=O)[C@H](CC(C)C)NC(=O)[C@@H](NC(=O)CNC(=O)[C@H](CC(N)=O)NC(=O)[C@H](CO)NC(=O)[C@H](Cc1c[nH]c2ccccc12)NC(=O)[C@H](CC(C)C)NC(=O)[C@@H](NC(=O)[C@@H](N)Cc1c[nH]cn1)[C@@H](C)O)C(C)C)[C@@H](C)CC)C(=O)O [NS1 229-243]
IC50 (DRB3*0101): 733 nM
IC50 (DRB4*0101): 8080 nM

CC[C@H](C)[C@H](NC(=O)[C@@H](N)CCSC)C(=O)N[C@H](C(=O)N1CCC[C@H]1C(=O)N[C@@H](CCCCN)C(=O)N[C@@H](CO)C(=O)N[C@@H](CC(C)C)C(=O)N[C@@H](C)C(=O)NCC(=O)N1CCC[C@H]1C(=O)N[C@H](C(=O)N[C@@H](CO)C(=O)N[C@@H](CCC(N)=O)C(=O)N[C@@H](Cc1c[nH]cn1)C(=O)N[C@@H](CC(N)=O)C(=O)O)[C@@H](C)CC)[C@@H](C)CC [NS1 241-255]
IC50 (DRB5*0101): 3200 nM
IC50 (DRB4*0101): 1090 nM

CC(C)C[C@H](NC(=O)[C@H](CCC(=O)O)NC(=O)[C@H](CC(C)C)NC(=O)[C@H](CCCCN)NC(=O)CNC(=O)[C@H](CC(C)C)NC(=O)[C@H](Cc1c[nH]cn1)NC(=O)[C@H](Cc1c[nH]c2ccccc12)NC(=O)[C@@H]1CCCN1C(=O)CNC(=O)[C@H](C)NC(=O)[C@@H](NC(=O)[C@H](CCC(N)=O)NC(=O)[C@@H](NC(=O)[C@@H](N)Cc1c[nH]cn1)[C@@H](C)O)[C@@H](C)O)C(=O)O [NS1 261-275]
IC50 (DRB3*0101): 1330 nM
IC50 (DRB4*0101): 666 nM

CSCC[C@H](NC(=O)[C@H](Cc1ccc(O)cc1)NC(=O)[C@H](CCCNC(=N)N)NC(=O)[C@H](CC(C)C)NC(=O)[C@@H]1CCCN1C(=O)[C@@H]1CCCN1C(=O)[C@H](CC(C)C)NC(=O)[C@@H](NC(=O)[C@H](CS)NC(=O)[C@H](CO)NC(=O)[C@H](CCCNC(=N)N)NC(=O)[C@@H](N)CS)[C@@H](C)O)C(=O)NCC(=O)N[C@@H](CCC(=O)O)C(=O)N[C@@H](CC(=O)O)C(=O)O [NS1 313-327]
IC50 (DRB5*0101): 2270 nM
IC50 (DRB4*0101): 503 nM

CC[C@H](C)[C@H](NC(=O)[C@H](CC(C)C)NC(=O)[C@H](CC(=O)O)NC(=O)[C@H](CCCCN)NC(=O)[C@@H](N)CCCCN)C(=O)N[C@@H](CO)C(=O)N[C@@H](Cc1ccc(O)cc1)C(=O)NCC(=O)NCC(=O)NCC(=O)N[C@@H](Cc1c[nH]c2ccccc12)C(=O)N[C@@H](CCCNC(=N)N)C(=O)N[C@@H](CC(C)C)C(=O)N[C@@H](CO)C(=O)N[C@@H](C)C(=O)O [NS3 73-87]
IC50 (DRB5*0101): 71 nM
IC50 (DRB4*0101): 3470 nM

CC[C@H](C)[C@H](N)C(=O)N[C@@H](CO)C(=O)N[C@@H](Cc1ccc(O)cc1)C(=O)NCC(=O)NCC(=O)NCC(=O)N[C@@H](Cc1c[nH]c2ccccc12)C(=O)N[C@@H](CCCNC(=N)N)C(=O)N[C@@H](CC(C)C)C(=O)N[C@@H](CO)C(=O)N[C@@H](C)C(=O)N[C@@H](CCC(N)=O)C(=O)N[C@@H](Cc1c[nH]c2ccccc12)C(=O)N[C@@H](CCC(N)=O)C(=O)N[C@@H](CCCCN)C(=O)O [NS3 77-91]
IC50 (DRB3*0101): 2020 nM
IC50 (DRB4*0101): 708 nM

CC[C@H](C)[C@H](NC(=O)[C@@H](NC(=O)[C@H](CC(C)C)NC(=O)[C@H](CC(N)=O)NC(=O)[C@H](CCCNC(=N)N)NC(=O)[C@H](CCCCN)NC(=O)[C@H](CCCCN)NC(=O)[C@H](Cc1ccccc1)NC(=O)[C@H](CCSC)NC(=O)[C@H](CCC(=O)O)NC(=O)[C@@H](N)CCC(=O)O)[C@@H](C)O)C(=O)N[C@@H](CCSC)C(=O)N[C@@H](CC(=O)O)C(=O)N[C@@H](CC(C)C)C(=O)N[C@@H](Cc1c[nH]cn1)C(=O)O [NS3 181-195]
IC50 (DRB3*0101): 1260 nM
IC50 (DRB4*0101): 68 nM

CC[C@H](C)[C@H](NC(=O)[C@@H](NC(=O)[C@H](CC(C)C)NC(=O)[C@H](CC(N)=O)NC(=O)[C@H](CCCNC(=N)N)NC(=O)[C@H](CCCCN)NC(=O)[C@@H](N)CCCCN)[C@@H](C)O)C(=O)N[C@@H](CCSC)C(=O)N[C@@H](CC(=O)O)C(=O)N[C@@H](CC(C)C)C(=O)N[C@@H](Cc1c[nH]cn1)C(=O)N1CCC[C@H]1C(=O)NCC(=O)N[C@@H](CO)C(=O)NCC(=O)O [NS3 185-199]
IC50 (DRB3*0101): 1460 nM
IC50 (DRB4*0101): 7.6 nM

CC[C@H](C)[C@H](NC(=O)[C@H](C)NC(=O)[C@H](CCC(=O)O)NC(=O)[C@H](CCCNC(=N)N)NC(=O)[C@@H](N)C(C)C)C(=O)N[C@@H](CCCCN)C(=O)N[C@@H](CCCNC(=N)N)C(=O)N[C@@H](CCCNC(=N)N)C(=O)N[C@@H](CC(C)C)C(=O)N[C@@H](CCCNC(=N)N)C(=O)N[C@H](C(=O)N[C@@H](CC(C)C)C(=O)N[C@H](C(=O)N[C@@H](CC(C)C)C(=O)N[C@@H](C)C(=O)O)[C@@H](C)CC)[C@@H](C)O [NS3 209-223]
IC50 (DRB3*0101): 2610 nM
IC50 (DRB4*0101): 5.1 nM

CC[C@H](C)[C@H](NC(=O)[C@H](CO)NC(=O)[C@H](C)N)C(=O)N[C@@H](C)C(=O)N[C@@H](C)C(=O)N[C@@H](CCCNC(=N)N)C(=O)NCC(=O)N[C@@H](Cc1ccc(O)cc1)C(=O)N[C@H](C(=O)N[C@@H](CO)C(=O)N[C@H](C(=O)N[C@@H](CCCNC(=N)N)C(=O)N[C@H](C(=O)NCC(=O)N[C@@H](CCSC)C(=O)O)C(C)C)[C@@H](C)O)[C@@H](C)CC [NS3 293-307]
IC50 (DRB3*0101): 18900 nM
IC50 (DRB4*0101): 2670 nM

CC[C@H](C)[C@H](NC(=O)[C@H](Cc1c[nH]c2ccccc12)NC(=O)[C@H](CCC(=O)O)NC(=O)[C@H](CC(N)=O)NC(=O)CNC(=O)[C@H](CO)NC(=O)[C@H](CC(N)=O)NC(=O)[C@@H](N)Cc1c[nH]c2ccccc12)C(=O)N[C@H](C(=O)N[C@@H](CC(=O)O)C(=O)N[C@@H](Cc1ccccc1)C(=O)N[C@@H](C)C(=O)NCC(=O)N[C@@H](CCCCN)C(=O)N[C@H](C(=O)O)[C@@H](C)O)[C@@H](C)O [NS3 345-359]
IC50 (DRB3*0101): 32 nM
IC50 (DRB4*0101): 1050 nM

CC[C@H](C)[C@H](NC(=O)[C@H](Cc1c[nH]c2ccccc12)NC(=O)[C@H](CCC(=O)O)NC(=O)[C@@H](N)CC(N)=O)C(=O)N[C@H](C(=O)N[C@@H](CC(=O)O)C(=O)N[C@@H](Cc1ccccc1)C(=O)N[C@@H](C)C(=O)NCC(=O)N[C@@H](CCCCN)C(=O)N[C@H](C(=O)N[C@H](C(=O)N[C@@H](Cc1c[nH]c2ccccc12)C(=O)N[C@@H](Cc1ccccc1)C(=O)N[C@H](C(=O)O)C(C)C)C(C)C)[C@@H](C)O)[C@@H](C)O [NS3 349-363]
IC50 (DRB3*0101): 221 nM
IC50 (DRB4*0101): 5420 nM

CC[C@H](C)[C@H](NC(=O)[C@H](CCC(=O)O)NC(=O)CNC(=O)[C@H](CCCNC(=N)N)NC(=O)[C@H](CCCCN)NC(=O)[C@H](CC(C)C)NC(=O)CNC(=O)[C@H](CCC(=O)O)NC(=O)[C@H](CCCCN)NC(=O)[C@H](C)NC(=O)[C@H](CCC(=O)O)NC(=O)[C@@H](N)[C@@H](C)O)C(=O)N[C@H](C(=O)N[C@@H](Cc1c[nH]cn1)C(=O)N[C@@H](Cc1c[nH]cn1)C(=O)N[C@@H](C)C(=O)N[C@H](C(=O)O)C(C)C)[C@@H](C)O [NS5 39-55]
IC50 (DRB3*0101): 749 nM
IC50 (DRB4*0101): 563 nM

CC[C@H](C)[C@H](NC(=O)[C@H](CCSC)NC(=O)[C@H](CO)NC(=O)[C@H](CO)NC(=O)[C@H](C)NC(=O)[C@H](CO)NC(=O)CNC(=O)[C@@H](NC(=O)[C@H](C)NC(=O)[C@H](CCCCN)NC(=O)[C@@H](NC(=O)[C@H](CCC(=O)O)NC(=O)[C@H](Cc1ccc(O)cc1)NC(=O)[C@H](CO)NC(=O)CN)C(C)C)[C@@H](C)O)C(=O)N[C@@H](CC(N)=O)C(=O)NCC(=O)O [NS5 306-322]
IC50 (DRB3*0101): 2290 nM
IC50 (DRB4*0101): 5550 nM

CSCC[C@H](NC(=O)[C@H](C)NC(=O)[C@H](CCSC)NC(=O)[C@H](CCC(N)=O)NC(=O)[C@@H](NC(=O)[C@@H](NC(=O)[C@@H](N)CCSC)C(C)C)[C@@H](C)O)C(=O)N[C@H](C(=O)N[C@@H](CC(=O)O)C(=O)N[C@H](C(=O)N[C@H](C(=O)N1CCC[C@H]1C(=O)N[C@@H](Cc1ccccc1)C(=O)NCC(=O)N[C@@H](CCC(N)=O)C(=O)N[C@@H](CCC(N)=O)C(=O)N[C@@H](CCCNC(=N)N)C(=O)O)[C@@H](C)O)[C@@H](C)O)[C@@H](C)O [NS5 336-352]
IC50 (DRB5*0101): 10400 nM
IC50 (DRB4*0101): 747 nM

CC[C@H](C)[C@H](NC(=O)[C@H](Cc1ccc(O)cc1)NC(=O)CNC(=O)[C@H](CC(C)C)NC(=O)[C@H](CCCCN)NC(=O)[C@H](Cc1c[nH]cn1)NC(=O)[C@@H](N)CC(C)C)C(=O)N[C@@H](CC(C)C)C(=O)N[C@@H](CCCNC(=N)N)C(=O)N[C@@H](CC(=O)O)C(=O)N[C@H](C(=O)N[C@@H](CO)C(=O)N[C@@H](CCCCN)C(=O)N[C@H](C(=O)N1CCC[C@H]1C(=O)NCC(=O)NCC(=O)O)[C@@H](C)CC)[C@@H](C)CC [NS5 511-527]
IC50 (DRB5*0101): 611 nM
IC50 (DRB4*0101): 57 nM

CC[C@H](C)[C@H](NC(=O)[C@H](CC(=O)O)NC(=O)[C@H](CCSC)NC(=O)[C@@H](NC(=O)[C@@H](NC(=O)CNC(=O)[C@H](CCCCN)NC(=O)[C@@H]1CCCN1C(=O)[C@@H](NC(=O)[C@@H]1CCCN1)[C@@H](C)O)[C@@H](C)O)C(C)C)C(=O)N[C@H](C(=O)N[C@@H](CO)C(=O)N[C@@H](CCCNC(=N)N)C(=O)N[C@@H](CCCCN)C(=O)N[C@@H](CC(=O)O)C(=O)N[C@@H](CCC(N)=O)C(=O)N[C@@H](CCCNC(=N)N)C(=O)O)[C@@H](C)CC [NS5 582-598]
IC50 (DRB3*0101): 7220 nM
IC50 (DRB4*0101): 1540 nM
